The text below walks through data of publication PMC10385865, “Synthesis and Anticancer Activity of Novel Dual Inhibitors of Human Protein Kinases CK2 and PIM-1” (Pharmaceutics, 2023).

One assay concerns the target PIM1. The arrangement: method as in PMID 23360763, PMID 24442476, PMID 34200807. Particulars: Figure 1, dual CK2/PIM-1 inhibitors; cited from earlier work.
In a further assay the target is CK2. On the set-up: method as in PMID 33807474. As to conditions: Figure 1, representative CK2 inhibitors; cited from earlier work.
In a further assay the target is T1, human CK2α (Homo sapiens, UniProt P68400).
T1 construct: made in house
As to the kind of experiment: P81 filter isotopic (radiometric) kinase assay, CK2 catalytic subunit. The assay is classed as biochemical. As to conditions: substrate peptide […], Ki from IC50 by Cheng–Prusoff. The method, then: (§1) The obtained compounds were tested for their inhibitory activity toward human CK2α, human CK2 holoenzyme, and PIM-1 using a P81 filter isotopic assay as described previously. […] The experimental data were fitted to the sigmoidal dose–response equation, i.e., (variable slope) Y = Bottom + (Top-Bottom)/(1 + 10^((LogIC50−X)∗HillSlope), in GraphPad Prism (Prism 9, v. 9.0.1).
(§2) Inhibition of the human CK2 catalytic subunit (CK2α), CK2 holoenzyme (CK2α2β2), and PIM-1 by the newly obtained compounds was evaluated using a radiometric assay (Table 1, Figure S2). The synthetic peptide […] was used as the substrate of CK2, and peptide […] was used as the substrate of PIM-1. The values of the inhibition constant (Ki) were calculated using the Cheng–Prusoff equation: Ki = IC50/(1 + [S]/Km).

The target of assay [1] is T2, human CK2 holoenzyme (CK2α2β2) (Homo sapiens, UniProt P68400).
T2 construct: made in house
As to the kind of experiment: P81 filter isotopic (radiometric) kinase assay, CK2 holoenzyme. The assay is classed as biochemical. Particulars: substrate peptide […], Ki from IC50 by Cheng–Prusoff. The method, then: as §1, §2

The next assay addresses T3, PIM-1 (Homo sapiens, UniProt P11309).
T3 construct: made in house
As to the kind of experiment: P81 filter isotopic (radiometric) kinase assay, PIM-1. In kind it is biochemical. Particulars: substrate peptide […], Ki from IC50 by Cheng–Prusoff. The method, then: as §1, §2

In assay [2] the test system is CCRF-CEM (acute lymphoblastic leukemia). As to the kind of experiment: MTT-based viability assay, CCRF-CEM. Particulars: for IC50: Homo sapiens, CCRF-CEM, MTT, 48 h, read-out: IC50 CCRF-CEM; for SI (selectivity index) CCRF-CEM: IC50 Vero/IC50 cancer cells. In kind it is cell-based, human. The method, then:
(§3) After incubation with the tested compounds, an MTT test was performed as described previously. Optical densities were measured at 570 nm using a BioTek microplate reader (BioTek Instruments, Inc., Winooski, VT, USA). All measurements were carried out in a minimum of three biological replicates.
(§4) . The IC50 values describing the half-maximal effective concentration of each tested compound were calculated and are summarized in Table 2. […].

For assay [3], the system named is K-562 (chronic myelogenous leukemia). As to the kind of experiment: MTT-based viability assay, K-562. In kind it is cell-based, human. As to conditions: for IC50: Homo sapiens, K562, MTT, 48 h, read-out: IC50 K-562; for SI (selectivity index) K-562: IC50 Vero/IC50 cancer cells. The method, then:
as §3, §4
A general note: Tetrazolium assays rely on reduction of a dye to a coloured formazan, in cell work by metabolically active cells.

The next assay has as its system MCF-7 (breast carcinoma). As to the kind of experiment: MTT-based viability assay, MCF-7. As to conditions: for IC50: Homo sapiens, MCF7, MTT, 48 h, read-out: IC50 MCF-7; for SI (selectivity index) MCF-7: IC50 Vero/IC50 cancer cells. The assay is classed as cell-based, human. The method, then: as §3, §4
Another assay has as its system Vero cells. As to the kind of experiment: MTT-based viability assay, non-cancerous Vero cells. In kind it is cell-based, Cercopithecus aethiops. As to conditions: Chlorocebus sabaeus, MTT, 48 h, read-out: IC50 Vero. The method, then: as §3, §4
The target of the next assay is CK2-α. On the set-up: method as in PMID 23360763, PMID 24442476, PMID 34200807. As to conditions: Figure 1, dual CK2/PIM-1 inhibitors; cited from earlier work.

T3 sequence (P11309 whole entry): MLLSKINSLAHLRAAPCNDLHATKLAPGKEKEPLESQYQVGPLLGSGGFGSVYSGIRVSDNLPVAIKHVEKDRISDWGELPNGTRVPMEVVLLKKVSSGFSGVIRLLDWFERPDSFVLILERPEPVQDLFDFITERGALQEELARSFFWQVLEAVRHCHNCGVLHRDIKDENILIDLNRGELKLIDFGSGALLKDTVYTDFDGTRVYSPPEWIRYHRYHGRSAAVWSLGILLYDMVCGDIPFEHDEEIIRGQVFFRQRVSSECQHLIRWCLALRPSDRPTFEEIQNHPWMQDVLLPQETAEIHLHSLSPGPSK
T1 sequence (P68400 whole entry): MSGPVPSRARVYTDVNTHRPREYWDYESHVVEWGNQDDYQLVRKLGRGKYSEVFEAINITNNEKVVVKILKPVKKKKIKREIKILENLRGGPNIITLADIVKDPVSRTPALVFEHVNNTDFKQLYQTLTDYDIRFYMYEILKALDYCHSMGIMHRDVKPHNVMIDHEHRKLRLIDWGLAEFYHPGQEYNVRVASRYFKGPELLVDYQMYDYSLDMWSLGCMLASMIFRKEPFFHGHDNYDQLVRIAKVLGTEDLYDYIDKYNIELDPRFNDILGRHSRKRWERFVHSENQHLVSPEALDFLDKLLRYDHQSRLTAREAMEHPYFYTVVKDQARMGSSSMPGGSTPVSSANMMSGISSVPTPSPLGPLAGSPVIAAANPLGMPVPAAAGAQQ
T2 sequence (P68400 whole entry): as above
T2 sequence (P67870 whole entry partner): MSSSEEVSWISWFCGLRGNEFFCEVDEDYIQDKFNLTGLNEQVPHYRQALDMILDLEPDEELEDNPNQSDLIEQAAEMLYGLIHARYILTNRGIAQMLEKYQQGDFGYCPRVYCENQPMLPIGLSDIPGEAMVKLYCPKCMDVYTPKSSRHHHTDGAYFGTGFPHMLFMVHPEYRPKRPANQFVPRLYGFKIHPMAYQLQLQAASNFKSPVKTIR

By Ki is commonly meant a dissociation constant, usually derived from enzyme kinetics or from competition with a known ligand. With `OC[C@H]1O[C@@H](n2cnc3c(Br)c(Br)c(Br)c(Br)c32)C[C@@H]1O` [TDB (K164), 1-(β-D-2′-deoxyribofuranosyl)-4,5,6,7-tetrabromo-1H-benzimidazole], on PIM1, the inhibition constant (Ki) was 0.04 µM.
On to “4,5,6,7-tetrabromo-2,3-dihydro-1H-1,3-benzodiazol-2-one [Compound K37]”, for which, at CK2, the inhibition constant (Ki) is 0.07 µM.
The IC50 is the point on the concentration scale where inhibition reaches its midpoint. With `CN(CCO)c1nc2c(Br)c(Br)c(Br)c(Br)c2[nH]1` [Compound 8, 2-[Methyl(4,5,6,7-tetrabromo-1H-benzimidazol-2-yl)amino]ethanol], the Ki was 0.256 µM on human CK2α, 0.072 µM in [1] and 0.071 µM on PIM-1. Also, the 50% inhibitory concentration (IC50) in [2] was determined as 17.4 ± 0.27 µM; in assay [3] it was 40 ± 7.45 µM; in the assay on MCF-7 (breast carcinoma), 15.1 ± 0.39 µM; in the assay with Vero cells it was 16.1 ± 0.27 µM. Further, the “SI (selectivity index) CCRF-CEM” value in assay [2] was found to be 0.92. The “SI (selectivity index) K-562” value in assay [3] came out at 0.40. The “SI (selectivity index) MCF-7” value in the assay on MCF-7 (breast carcinoma) was 1.06.
Regarding `OC[C@H]1O[C@@H](n2cnc3cc(Cl)c(Cl)cc32)[C@H](O)[C@@H]1O` [DRB, 5,6-dichloro-1-β-D-ribofuranosylbenzimidazole], the inhibition constant Ki at CK2 is 23 µM.
Regarding `Cc1nc2c(Br)c(Br)c(Br)c(Br)c2n1CCCO` [N^1-PrOH-2-MeTBBi, 3-(4,5,6,7-tetrabromo-2-methyl-1H-1,3-benzodiazol-1-yl)propan-1-ol], the Ki is 0.05 µM at CK2-α and 0.15 µM at PIM1.
Regarding `OCC(O)CNc1nc2c(Br)c(Br)c(Br)c(Br)c2[nH]1` (racemic) [rac-11, 3-[(4,5,6,7-Tetrabromo-1H-benzimidazol-2-yl)amino]propane-1,2-diol], the inhibition constant Ki on human CK2α turned out to be 0.151 µM; in assay [1] it was 0.089 µM; on PIM-1 it was 0.073 µM. The IC50 in assay [2] was 33.8 ± 0.26 µM; in [3], 41.5 ± 8.45 µM; in the assay with MCF-7 (breast carcinoma) it was 17.2 ± 0.39 µM; with Vero cells, 41.53 ± 0.1 µM. The “SI (selectivity index) CCRF-CEM” value in assay [2] is listed as 1.23. Moreover, the “SI (selectivity index) K-562” value in assay [3] amounted to 1.00. Moreover, in the assay on MCF-7 (breast carcinoma), the “SI (selectivity index) MCF-7” value stood at 2.41.
For the compound `OCCCNc1nc2c(Br)c(Br)c(Br)c(Br)c2[nH]1` [Compound 7, 3-[(4,5,6,7-Tetrabromo-1H-benzimidazol-2-yl)amino]propan-1-ol], the inhibition constant (Ki) is 0.156 µM on human CK2α, 0.114 µM in assay [1] and 0.082 µM at PIM-1. The IC50 was 25.6 ± 0.54 µM in assay [2], 33.7 ± 4.92 µM in assay [3], 18.2 ± 0.3 µM in the assay on MCF-7 (breast carcinoma) and 29.46 ± 0.12 µM in the assay on Vero cells. Further, the “SI (selectivity index) CCRF-CEM” value in assay [2] is 1.15. The “SI (selectivity index) K-562” value in assay [3] is 0.87. The “SI (selectivity index) MCF-7” value with MCF-7 (breast carcinoma) came to 1.62.
With `C[C@H](O)CNc1nc2c(Br)c(Br)c(Br)c(Br)c2[nH]1` [(S)-5, (2S)-1-[(4,5,6,7-tetrabromo-1H-benzimidazol-2-yl)amino]propan-2-ol], the Ki amounted to 0.271 µM on human CK2α, 0.167 µM in assay [1] and 0.099 µM on PIM-1. Also, the 50% inhibitory concentration (IC50) in assay [2] was 23.2 ± 4.01 µM; in [3] it was 39.3 ± 9.05 µM; in the assay on MCF-7 (breast carcinoma), 16.6 ± 0.3 µM; in the assay on Vero cells, 25.2 ± 0.54 µM. The “SI (selectivity index) CCRF-CEM” value in assay [2] came out at 1.11. Also, the “SI (selectivity index) K-562” value in [3] came out at 0.64. The “SI (selectivity index) MCF-7” value in the assay with MCF-7 (breast carcinoma) amounted to 1.52.
Turning to `Brc1c(Br)c(Br)c2[nH]cnc2c1Br` [TBBi, 4,5,6,7-tetrabromo-1H-benzimidazole], on CK2, the Ki was 0.3 µM.
Take `CCN(CC)CC(O)CNc1nc2c(Br)c(Br)c(Br)c(Br)c2[nH]1` (racemic) [rac-9, 1-(Diethylamino)-3-[(4,5,6,7-tetrabromo-1H-benzimidazol-2-yl)amino]propan-2-ol]: the Ki at human CK2α is 1.67 µM; in [1], 0.605 µM; on PIM-1, 0.267 µM. The IC50 in [2] stood at 13.6 ± 0.84 µM; in [3], 11.6 ± 2.85 µM; with MCF-7 (breast carcinoma) it was 10.8 ± 0.23 µM; in the assay with Vero cells, 12 ± 0.21 µM. For the same compound, the “SI (selectivity index) CCRF-CEM” value in assay [2] came out at 0.88. In addition, in assay [3], the “SI (selectivity index) K-562” value worked out at 1.03. Besides, in the assay on MCF-7 (breast carcinoma), the “SI (selectivity index) MCF-7” value was determined as 1.11.
Regarding `C[C@@H](O)CNc1nc2c(Br)c(Br)c(Br)c(Br)c2[nH]1` [(R)-5, (2R)-1-[(4,5,6,7-tetrabromo-1H-benzimidazol-2-yl)amino]propan-2-ol], the results for the inhibition constant Ki (at human CK2α; in assay [1]; on PIM-1) were 0.394 µM, 0.104 µM and 0.089 µM, respectively. In addition, the 50% inhibitory concentration (IC50) in [2] was determined as 22.31 ± 0.1 µM; in assay [3] it was 39.6 ± 8.11 µM; in the assay on MCF-7 (breast carcinoma), 16.1 ± 0.19 µM; with Vero cells it was 28.3 ± 0.43 µM. Besides, the “SI (selectivity index) CCRF-CEM” value in assay [2] was 1.27. Moreover, the “SI (selectivity index) K-562” value in [3] was found to be 0.71. In addition, the “SI (selectivity index) MCF-7” value in the assay with MCF-7 (breast carcinoma) was 1.76.
Consider `CC(O)CNc1nc2c(Br)c(Br)c(Br)c(Br)c2[nH]1` (racemic) [rac-5, 1-[(4,5,6,7-Tetrabromo-1H-benzimidazol-2-yl)amino]propan-2-ol], for which the Ki came to 0.296 µM at human CK2α, 0.127 µM in [1] and 0.064 µM on PIM-1. For the same compound, the IC50 worked out at 21.7 ± 0.86 µM in assay [2], 38.7 ± 8.08 µM in assay [3], 16.9 ± 0.3 µM in the assay with MCF-7 (breast carcinoma) and 22.58 ± 0.13 µM in the assay with Vero cells. Besides, the “SI (selectivity index) CCRF-CEM” value in assay [2] was determined as 1.04. The “SI (selectivity index) K-562” value in assay [3] was 0.58. The “SI (selectivity index) MCF-7” value with MCF-7 (breast carcinoma) was found to be 1.34.
As for `OCC(CO)Nc1nc2c(Br)c(Br)c(Br)c(Br)c2[nH]1` [Compound 10, 2-[(4,5,6,7-Tetrabromo-1H-benzimidazol-2-yl)amino]propane-1,3-diol], the Ki is 0.139 µM on human CK2α, 0.124 µM in [1] and 0.093 µM at PIM-1. Besides, the half-maximal inhibitory concentration (IC50) in [2] amounted to 24.47 ± 0.21 µM; in assay [3], 38.1 ± 5.56 µM; in the assay with MCF-7 (breast carcinoma), 16.6 ± 0.23 µM; with Vero cells, 25.19 ± 0.1 µM. For the same compound, the “SI (selectivity index) CCRF-CEM” value in assay [2] came out at 1.03. The “SI (selectivity index) K-562” value in [3] was found to be 0.66. Moreover, the “SI (selectivity index) MCF-7” value with MCF-7 (breast carcinoma) is listed as 1.51.
Take `O=c1[nH]c2c(Br)c(Br)c(Br)c(Br)c2[nH]1` [Compound K32, 4,5,6,7-tetrabromo-2,3-dihydro-1H-1,3-benzodiazol-2-one]: at CK2, the Ki is 0.15 µM.
